This passage reports IC50 results from US6838439B2, “Heterocytes as inhibitors of leucocyte adhesion and as VLA-4 antagonists” (Aventis Pharma Deutschland GmbH, priority 1996, dated 2005).

Molecules are shown by their SMILES.

In this assay the target is T1, interaction between VCAM-1 and VLA-4 (VLA-4 on human U937 cells / hVCAM-1(1-3)-IgG) (Homo sapiens, UniProt P05556+P13612).
T1 construct: offered in their natural form as surface molecules on human U937 cells; host or cells: U937 cells carry the endogenous VLA-4; The partner hVCAM-1(1-3)-IgG was made in house in transfected COS cells (ATCC CRL1651) and used as culture supernatant
T1 sequence (P13612 34-1032): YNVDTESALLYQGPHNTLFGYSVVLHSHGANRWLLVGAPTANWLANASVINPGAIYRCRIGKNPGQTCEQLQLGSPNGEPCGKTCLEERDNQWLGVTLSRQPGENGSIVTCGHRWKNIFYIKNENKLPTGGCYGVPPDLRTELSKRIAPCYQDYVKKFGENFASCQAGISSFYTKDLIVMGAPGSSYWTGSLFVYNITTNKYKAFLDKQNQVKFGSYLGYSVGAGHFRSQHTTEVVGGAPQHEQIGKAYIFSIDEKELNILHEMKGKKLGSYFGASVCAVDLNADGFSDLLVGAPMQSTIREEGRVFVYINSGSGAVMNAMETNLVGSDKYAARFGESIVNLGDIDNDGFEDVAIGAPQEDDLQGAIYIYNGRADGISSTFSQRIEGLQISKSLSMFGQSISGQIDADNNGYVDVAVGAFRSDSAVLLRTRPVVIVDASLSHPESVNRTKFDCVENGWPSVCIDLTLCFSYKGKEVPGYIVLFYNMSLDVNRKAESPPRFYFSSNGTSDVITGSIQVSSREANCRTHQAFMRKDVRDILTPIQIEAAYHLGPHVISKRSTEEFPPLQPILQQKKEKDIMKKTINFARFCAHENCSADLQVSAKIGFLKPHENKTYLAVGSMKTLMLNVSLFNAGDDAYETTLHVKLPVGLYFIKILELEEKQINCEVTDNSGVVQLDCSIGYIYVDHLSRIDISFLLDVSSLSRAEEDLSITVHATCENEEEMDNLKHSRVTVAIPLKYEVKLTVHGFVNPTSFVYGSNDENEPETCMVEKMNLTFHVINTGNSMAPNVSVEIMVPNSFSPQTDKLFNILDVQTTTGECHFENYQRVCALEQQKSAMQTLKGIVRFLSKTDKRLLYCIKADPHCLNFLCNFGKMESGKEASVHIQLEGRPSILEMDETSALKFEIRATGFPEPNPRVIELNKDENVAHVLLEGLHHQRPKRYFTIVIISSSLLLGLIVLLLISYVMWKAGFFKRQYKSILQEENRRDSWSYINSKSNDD
T1 sequence (P05556 21-798): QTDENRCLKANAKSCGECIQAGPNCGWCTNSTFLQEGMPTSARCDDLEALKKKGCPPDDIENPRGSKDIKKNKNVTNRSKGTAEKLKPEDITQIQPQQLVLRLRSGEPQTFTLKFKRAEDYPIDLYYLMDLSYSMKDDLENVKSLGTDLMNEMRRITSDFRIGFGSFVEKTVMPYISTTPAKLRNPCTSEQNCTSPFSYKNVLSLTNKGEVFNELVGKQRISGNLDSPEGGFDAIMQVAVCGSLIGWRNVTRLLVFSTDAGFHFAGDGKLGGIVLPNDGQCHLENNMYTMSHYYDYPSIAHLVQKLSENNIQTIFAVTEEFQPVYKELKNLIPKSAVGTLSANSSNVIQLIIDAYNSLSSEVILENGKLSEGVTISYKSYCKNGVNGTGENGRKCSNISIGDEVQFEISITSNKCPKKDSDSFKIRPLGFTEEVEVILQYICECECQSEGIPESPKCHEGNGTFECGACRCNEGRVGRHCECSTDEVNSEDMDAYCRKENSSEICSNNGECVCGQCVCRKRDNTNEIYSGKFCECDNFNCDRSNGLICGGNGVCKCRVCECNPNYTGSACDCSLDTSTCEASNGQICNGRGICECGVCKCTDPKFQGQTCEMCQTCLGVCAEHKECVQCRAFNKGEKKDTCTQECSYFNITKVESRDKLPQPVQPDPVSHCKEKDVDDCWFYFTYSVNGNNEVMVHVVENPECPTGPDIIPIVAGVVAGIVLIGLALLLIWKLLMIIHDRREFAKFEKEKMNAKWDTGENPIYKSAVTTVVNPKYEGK
Put plainly: U937/VCAM-1 cell adhesion test: adhesion of U937 cells to hVCAM-1(1-3)-IgG. The class given is cell-based. To be noted: inhibition of adhesion of U937 cells (ATCC CRL 1593) to hVCAM-1(1-3)-IgG. From the text:
As a test method for the activity of the compounds of the formula Ib on the interaction between VCAM-1 and VLA-4, an assay is used which is specific for this interaction. The cellular binding components, i.e. the VLA-4-integrins, are offered in their natural form as surface molecules on human U937 cells (ATCC CRL 1593), which belong to the group of leucocytes. As specific binding components, recombinant soluble fusion proteins prepared by genetic engineering and consisting of the extracytoplasmic domains of human VCAM-1 and the constant region of a human immunoglobulin of the subclass IgG1 are used.
Assay for the measurement of the adhesion of U937 cells (ATCC CRL 1593) to hVCAM-1(1-3)-IgG
1. Preparation of human VCAM-1(1-3)-IgG and human CD4-IgG
A genetic construct for the expression of the extracellular domains of human VCAM-1 was employed, associated with the genetic sequence of the heavy chain of human immunoglobulin IgG-1 (hinge, CH2 and CH3 regions), from Dr. Brian Seed, Massachusetts General Hospital, Boston, USA. The soluble fusion protein hVCAM-1(1-3)-IgG contained the three amino-terminal extracellular immunoglobulin-like domains of human VCAM-1 (Damle and Aruffo, Proc. Natl. Acad. Sci. USA 1991, 88, 6403). CD4-IgG (Zettlmeissl et al., DNA and Cell Biology 1990, 9, 347) served as a fusion protein for negative controls. The recombinant proteins were expressed as soluble proteins after DEAE/dextran-mediated DNA-transfection in COS cells (ATCC CRL1651) according to standard procedures (Ausubel et al., Current protocols in molecular biology, John Wiley & Sons, Inc., 1994).
2. Assay for measurement of the adhesion of U937 cells to hVCAM-1(1-3)-IgG
2.1 96-well microtiter test plates (Nunc Maxisorb) were incubated at room temperature for 1 hour with 100 μl/well of a goat-anti-human IgG antibody solution (10 μg/ml in 50 mM Tris, pH 9.5). After removing the antibody solution, washing was carried out once with PBS.
2.2 150 μl/well of a blocking buffer (1% BSA in PBS) was incubated on the plates at room temperature for 0.5 hours. After removing the blocking buffer, washing was carried out once with PBS.
2.3 100 μl per well of a cell culture supernatant of transfected COS cells were incubated on the plates at room temperature for 1.5 hours. The COS cells were transfected with a plasmid which codes for the three N-terminal immunoglobulin-like domains of VCAM-1, coupled to the Fc part of human IgG1 (hVCAM-1(1-3)-IgG). The content of hVCAM-1(1-3)-IgG was about 0.5-1 μg/ml. After removing the culture supernatant, washing was carried out once with PBS.
2.4 The plates were incubated at room temperature for 20 minutes with 100 μl/well of Fc receptor blocking buffer (1 mg/ml of γ-globulin, 100 mM NaCl, 100 μM MgCl2, 100 μM MnCl2, 100 μM CaCl2, 1 mg/ml BSA in 50 mM HEPES, pH 7.5). After removing the Fc receptor blocking buffer, washing was carried out once with PBS.
2.5 20 μl of binding buffer (100 μM NaCl, 100 μM MgCl2, 100 μM MnCl2, 100 μM CaCl2, 1 mg/ml BSA in 50 mM HEPES, pH 7.5), were initially introduced, the substances to be tested were added in 10 μl of binding buffer and the mixture was incubated for 20 minutes. As controls, antibodies against VCAM-1 (BBT, No. BBA6) and against VLA-4 (Immunotech, No. 0764) were used.
2.6 U937 cells were incubated in Fc receptor blocking buffer for 20 minutes and then pipetted in at a concentration of 1×10^6/ml and in an amount of 100 μl per well ([…]).
2.7 The plates were slowly immersed at an angle of 45° in stop buffer (100 mM NaCl, 100 μM MgCl2, 100 μM MnCl2, 100 μM CaCl2 in 25 mM Tris, pH 7.5) and shaken off. The process was repeated.
2.8 50 μl/well of a dye solution (16.7 μg/ml of Hoechst dye 33258, 4% formaldehyde, 0.5% Triton X-100 in PBS) were then incubated on the plates for 15 minutes.
2.9 The plates were shaken off and slowly immersed at an angle of 45° in stop buffer (100 mM NaCl, 100 μM MgCl2, 100 μM MnCl2, 100 μM CaCl2 in 25 mM tris, pH 7.5). The process was repeated. […]
For the molecule `CC1(c2ccc(C#N)cc2)C(=O)N(CC(=O)N[C@@H](CC(=O)O)C(=O)N[C@H](C(=O)O)c2ccccc2)C(=O)N1Cc1ccc2ccccc2c1` (stereo partly shown) [Example 1], the concentration for half-maximal inhibition (IC50) was 30 µM.

Turning to `CC1(c2ccc([N+](=O)[O-])cc2)C(=O)N(CC(=O)N[C@@H](CC(=O)O)C(=O)N[C@H](C(=O)O)c2ccccc2)C(=O)N1Cc1ccccc1` (stereo partly drawn) [Example 2, ((R,S)-3 -Benzyl-4-methyl-4-(4-nitrophenyl)-2,5-dioxoimidazolidin-1-yl)acetyl-L-aspartyl-L-phenylglycine], the IC50 was found to be 27.7 µM.

Turning to `Cc1ccccc1NC(=O)NCc1ccc(C2(C)C(=O)N(CC(=O)N[C@@H](CC(=O)O)C(=O)N[C@H](C(=O)O)c3ccccc3)C(=O)N2Cc2ccccc2)cc1` (stereo partly drawn) [Example 6, ((R,S)-3 -Benzyl-4-methyl-4-(4-(3-(2-methylphenyl)ureidomethyl)phenyl)-2,5-dioxoimidazolidin-1-yl)acetyl-L-aspartyl-L-phenylglycine], the IC50 came to 6.5 µM. Compared with the last molecule, the IC50 is about 4.3-fold lower.

`CC1(c2ccc(CNC(=O)NCc3ccccc3)cc2)C(=O)N(CC(=O)N[C@@H](CC(=O)O)C(=O)N[C@H](C(=O)O)c2ccccc2)C(=O)N1Cc1ccccc1` (stereo partly drawn) [Example 4, ((R,S)-3-Benzyl-4-(4-(3-benzylureidomethyl)phenyl)-4-methyl-2,5-dioxoimidazolidin-1-yl)acetyl-L-aspartyl-L-phenylglycine] gave an IC50 of 14 µM. This IC50 is about 2.2-fold higher than that of the molecule before.

The molecule `Cc1ccccc1NC(=O)Nc1ccc(C2(C)C(=O)N(CC(=O)N[C@@H](CC(=O)O)C(=O)N[C@H](C(=O)O)c3ccccc3)C(=O)N2Cc2ccccc2)cc1` (stereo partly drawn) [Example 3, ((R,S)-3-Benzyl-4-methyl-4-(4-(3-(2-methylphenyl)ureido)phenyl)-2,5-dioxoimidazolidin-1-yl)acetyl-L-aspartyl-L-phenylglycine] returned an IC50 of 2.8 µM.

Take `CC1(c2ccc(CNC(=O)Nc3ccccc3)cc2)C(=O)N(CC(=O)N[C@@H](CC(=O)O)C(=O)N[C@H](C(=O)O)c2ccccc2)C(=O)N1Cc1ccccc1` (mixture of isomers) [Example 5, ((RS)-3-Benzyl-4-methyl-4-(4-(3-phenylureidomethyl)phenyl)-2,5-dioxoimidazolidin-1-yl)acetyl-L-aspartyl-L-phenylglycine]: the IC50 was determined as 9 µM. Against the preceding molecule, the IC50 is about 3.2-fold higher.

Molecule `CC1(c2ccc(CNC(=O)NCCc3ccccc3)cc2)C(=O)N(CC(=O)N[C@@H](CC(=O)O)C(=O)N[C@H](C(=O)O)c2ccccc2)C(=O)N1Cc1ccccc1` (stereo partly drawn) [Example 7, ((R,S)-3-Benzyl-4-methyl-4-(4-(3-(2-phenylethyl)ureidomethyl)phenyl)-2,5-dioxoimidazolidin-1-yl)acetyl-L-aspartyl-L-phenylglycine] had an IC50 of 20 µM.
